Laboratory results: patent publication US20260199359A1 (INCYTE CORPORATION, priority 2021, published 2026)
Several values for one entry are separate records, joined by “and”; a condition that tells them apart may be missing. Equal entries are not always repeated. Where two headings read alike, the source gives them in different places.

How the values were obtained:
[1] = Apparent pH of solvent systems before API addition and of saturated supernatant; type: physicochemical
[2] = Compatibility / immiscibility of bases and trolamine levels in solvent systems; type: physicochemical
[3] = SSCR01 with 3.50% w/w of the named base, before API addition
[4] = SSNA01 with 3.50% w/w of the named base, before API addition
[5] = SSAG01 with 3.50% w/w of the named base, before API addition
[6] = SSAG01 with 3.50% w/w of the named base, saturated with ruxolitinib phosphate
[7] = SSCR01 with 3.50% w/w of the named base, saturated with ruxolitinib phosphate
[8] = SSNA01 with 3.50% w/w of the named base, saturated with ruxolitinib phosphate

Vehicle pH [1, 3]	Vehicle pH [1, 4]	Compatibility of base with solvent system ([2]; SSAG01)	compatibility of the base with the solvent system ([2]; SSAG01)	Supernatant pH [1, 7]	Supernatant pH [1, 8]	Compound	further results
–	–	–	–	–	–	CC(C)NC(C)C [Diisopropylamine]	Supernatant pH [1]: 4.80 and 4.53; Vehicle pH [1]: 10.62 and 12.57; Compatibility of base with solvent system ([2]; SSCR01): Incompatible; compatibility of the base with the solvent system ([2]; SSCR01): incompatible
10.88	10.30	Incompatible	incompatible	–	–	OCCNCCO [Diethanolamine]	–
11.44	10.45	–	–	3.61	4.98	CC(C)(N)CO [2-Amino-2-methyl-1-propanol]	Vehicle pH [1, 5]: 12.17; Supernatant pH [1, 6]: 4.34
10.38	10.27	Incompatible	incompatible	3.29	4.99	CCC(N)(CO)CO [2-Amino-2-ethyl-1,3-propanediol]	–
–	–	–	–	–	–	Ethanolamine	Supernatant pH [1]: 6.65 and 6.55 and 5.33; Vehicle pH [1]: 10.27 and 12.25 and 11.52; apparent pH of SSCR01 following API addition with the named base [1]: 5.33; apparent pH of SSNA01 following API addition with the named base [1]: ca. 6.6
–	–	–	–	–	–	N#CC[C@H](C1CCCC1)n1cc(-c2ncnc3[nH]ccc23)cn1 [Ruxolitinib phosphate, ruxolitinib phosphate]	solubility at 24 h (physchem): 11.3 mg/mL
10.63	9.89	–	–	3.49	6.51	CC(O)CNCC(C)O (centres unmarked) [Diisopropanolamine]	apparent pH of SSAG01 following API addition with the named base ([1]; SSAG01, after ruxolitinib phosphate addition): 4.29; Vehicle pH [1, 5]: 11.31; Supernatant pH [1, 6]: 4.29
10.08	–	Incompatible	not compatible	3.45	–	NC(CO)(CO)CO [Tris]	Compatibility of base with solvent system ([2]; SSNA01): Incompatible; compatibility of the base with the solvent system ([2]; SSNA01): incompatible
